From PubChem BioAssay (NCI)
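Following 48 hours of exposure in 96-well plates, responses at five concentrations were used to interpolate endpoints linearly. TGI is the concentration that stops growth completely.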

Columns and labels:
Test in all cases: DTP human tumour cell line panel, 48 h
SK-MEL-2 melanoma = tested on: SK-MEL-2 melanoma
CCRF-CEM leukemia = tested on: CCRF-CEM leukemia
SW-620 colon = tested on: SW-620 colon
A549 NSCLC = tested on: A549 NSCLC
SR leukemia = tested on: SR leukemia
MOLT-4 leukemia = tested on: MOLT-4 leukemia
NCI-H226 lung = tested on: NCI-H226 lung
UACC-257 melanoma = tested on: UACC-257 melanoma
HL-60(TB) leukemia = tested on: HL-60(TB) leukemia
CAKI-1 renal = tested on: CAKI-1 renal
HOP-62 NSCLC = tested on: HOP-62 NSCLC
HCT-116 colon = tested on: HCT-116 colon
IGROV1 ovarian = tested on: IGROV1 ovarian
K-562 leukemia = tested on: K-562 leukemia
UO-31 renal = tested on: UO-31 renal
MDA-MB-435 = tested on: MDA-MB-435
DU-145 prostate = tested on: DU-145 prostate

Row | SMILES | TGI (SK-MEL-2 melanoma) [µM] | TGI (CCRF-CEM leukemia) [µM] | TGI (SW-620 colon) [µM] | TGI (A549 NSCLC) [µM] | TGI (SR leukemia) [µM] | TGI (MOLT-4 leukemia) [µM] | TGI (NCI-H226 lung) [µM] | TGI (UACC-257 melanoma) [µM] | TGI (HL-60(TB) leukemia) [µM] | TGI (CAKI-1 renal) [µM] | TGI (HOP-62 NSCLC) [µM] | TGI (HCT-116 colon) [µM] | TGI (IGROV1 ovarian) [µM] | TGI (K-562 leukemia) [µM] | TGI (UO-31 renal) [µM] | TGI (MDA-MB-435) [µM] | TGI (DU-145 prostate) [µM]
1 | CC/C(SC)=[N+](\C)[O-] | > 100 | 23.2 | > 100 | > 100 | 50 | 79.3 | > 100 | > 100 | 25.2 | > 100 | > 100 | > 68.4 | > 100 | > 100 | > 100 | – | –
2 | CN1N=C2c3ccccc3CC[C@H]2C1c1cccc(O)c1 (some centres undefined) | > 100 | > 100 | > 100 | > 100 | > 100 | > 100 | > 100 | > 100 | > 100 | – | > 100 | > 100 | > 100 | > 100 | > 100 | – | –
3 | COC(=O)N/N=C(/Cc1occc(=O)c1O)C(=O)Nc1ccc([N+](=O)[O-])cc1[N+](=O)[O-] | > 100 | > 100 | > 100 | > 100 | > 100 | > 100 | > 100 | > 100 | > 100 | > 100 | > 100 | > 100 | > 100 | > 100 | > 100 | – | –
4 | COc1ccc(C(SCC(N)C(=O)O)(c2ccc(OC)cc2)c2ccc(OC)cc2)cc1 (centres undefined) | 18.4 | > 31.6 | – | > 31.6 | > 31.6 | 24 | 18.3 | 17.3 | > 31.6 | > 31.6 | 17.8 | 15.6 | 20.2 | > 31.6 | 20 | 10.8 | –
5 | CC(C)C1COC(c2ccc3ccccc3c2-c2c(O[Si](C)(C)C(C)(C)C)ccc3ccccc23)=N1 (centres undefined) | 30.4 | 35.5 | 35.1 | 31.7 | – | 32 | 26.4 | 34.1 | 33.1 | 45.2 | 33.4 | – | 35.4 | 31.9 | 28.2 | – | –
6 | COC1=CC(=O)C2C(C1=O)C(c1ccc(OC)c(OC)c1)[C@H]2C (some centres undefined) | > 100 | 62.4 | 40.6 | > 100 | – | 31.3 | > 100 | 41.1 | 46.7 | 24 | > 100 | 31.9 | > 100 | 54.4 | > 100 | – | –
7 | O=C(/C=C/c1ccc2c(c1)OCO2)CC(=O)/C=C/c1ccc2c(c1)OCO2 | > 100 | > 100 | > 100 | > 100 | 79.8 | > 100 | > 100 | – | > 100 | > 100 | > 100 | > 100 | 68.2 | > 100 | > 100 | > 100 | –
8 | CCN(CC)CCCCC1CCN(CC(=O)N2c3cc(Cl)ccc3NC(=O)CC2C)CC1 (centres undefined) | – | > 100 | > 100 | > 100 | > 100 | > 100 | > 100 | > 100 | > 100 | > 100 | > 100 | > 100 | > 100 | > 100 | > 100 | – | –
9 | CCn1c2ccccc2c2cc(NC(=O)c3c(NCCNCCO)nc(=O)[nH]c3C)ccc21 | – | > 100 | > 100 | > 100 | – | > 100 | > 100 | > 100 | > 100 | > 100 | > 100 | > 100 | > 100 | > 100 | > 100 | > 100 | > 100
10 | CCOP(=O)(OCC)C(Nc1ccc(C(=O)O)cc1)c1ccc(C(Nc2ccc(C(=O)O)cc2)P(=O)(OCC)OCC)cc1 (centres undefined) | > 100 | > 100 | > 100 | > 100 | – | > 100 | > 100 | > 100 | – | > 100 | > 100 | > 100 | > 100 | > 100 | > 100 | > 100 | > 100
11 | N#CCc1nc(-c2cc3c(ccc4ccccc43)oc2=O)cs1 | 72.4 | > 100 | > 100 | > 100 | – | > 100 | 81.2 | 75.7 | > 100 | > 100 | 32.2 | > 100 | 43.7 | > 100 | > 100 | > 100 | > 100
12 | COC(=O)[C@H](COC(=O)/C=C/c1ccc(OC(C)=O)c(OC(C)=O)c1)NC(=O)/C=C/c1ccc(OC(C)=O)c(OC(C)=O)c1 | 35.2 | > 100 | > 100 | > 100 | – | > 100 | 56.7 | 42.1 | > 100 | 35.1 | 34.3 | 36.2 | 43 | > 100 | – | 45.5 | 29.4
13 | COc1ccc2c(c1)OC(c1ccccc1O)CC2=O (centres undefined) | 77.5 | > 100 | > 100 | > 100 | – | > 100 | – | > 100 | – | > 100 | > 100 | > 100 | – | > 100 | 96.8 | – | –
14 | CCCc1c(C(=O)OCC)[nH]c(C(=O)CCC(=O)c2[nH]c(C(=O)OCC)c(CCC)c2C(=O)OCC)c1C(=O)OCC | > 100 | > 100 | > 100 | > 100 | > 100 | > 100 | > 100 | > 100 | > 100 | > 100 | – | > 100 | > 100 | > 100 | > 100 | – | –
15 | N#CC(c1ccccc1)N(CCOCCOCCN(C(=O)c1cccc2ccccc12)C(C#N)c1ccccc1)C(=O)c1cccc2ccccc12 (centres undefined) | > 100 | > 100 | > 100 | > 100 | – | > 100 | > 100 | > 100 | > 100 | > 100 | – | > 100 | > 100 | > 100 | > 100 | > 100 | > 100
16 | Cc1nnc2n1N=C(c1cc(F)c(Cl)cc1Cl)/C(=C/c1ccc3c(c1)OCO3)S2 | > 100 | > 100 | > 100 | > 100 | – | > 100 | > 100 | > 100 | > 100 | > 100 | > 100 | > 100 | > 100 | > 100 | > 100 | > 100 | > 100
17 | CN(C)Cc1cc(/C=C/C(=O)c2ccc(Cl)c(Cl)c2)cc(CN(C)C)c1O | 31 | 16.9 | 30.1 | 36.8 | – | 32.3 | – | 25.8 | > 100 | 21.1 | 38 | 26.1 | 25.3 | 91.2 | 19.6 | 23.3 | 27.1
18 | COc1ccc(N=CN(C)C)c(C)c1 | 30.4 | 16.5 | – | > 100 | – | 23.8 | 64.5 | 9.95 | 4.1 | > 100 | 45.4 | 19.6 | > 100 | > 100 | 78.1 | 93.3 | 82
19 | COC(=O)C1(C(=O)OC)CC2=C(S(=O)(=O)c3ccccc3)C[C@H](C#N)[C@H]2C1 | > 100 | > 100 | > 100 | > 100 | – | > 100 | > 100 | > 100 | > 100 | > 100 | > 100 | > 100 | > 100 | – | > 100 | > 100 | > 100
20 | NC(=O)OCc1c(-c2ccccc2)nn(-c2ccccc2)c1COC(N)=O | > 100 | – | > 100 | > 100 | – | – | > 100 | > 100 | – | > 100 | – | > 100 | – | – | > 100 | > 100 | > 100
21 | CCOC(=O)c1cc2cc(C)cc(C(=O)c3ccc([N+](=O)[O-])cc3)c2[nH]1 | > 100 | – | > 100 | > 100 | – | > 100 | > 100 | > 100 | > 100 | > 100 | > 100 | > 100 | > 100 | > 100 | > 100 | > 100 | > 100
22 | O=C(OCc1ccccc1)N1CCCc2c(n(S(=O)(=O)c3ccccc3)c3ccccc23)C1 | > 100 | – | > 100 | > 100 | > 100 | > 100 | > 100 | > 100 | > 100 | > 100 | > 100 | > 100 | > 100 | > 100 | > 100 | – | > 100
23 | O=S(=O)(O)C(Cc1nc2ccccc2[nH]1)S(=O)(=O)OCCC1S(=O)(=O)OCCOS1(=O)=O (centres undefined) | > 100 | > 100 | > 100 | > 100 | – | > 100 | > 100 | > 100 | > 100 | > 100 | > 100 | > 100 | > 100 | > 100 | > 100 | > 100 | > 100
24 | Nc1ncnc2c1ncn2C1CC(OC2CCCCO2)C(CO)O1 (centres undefined) | > 100 | > 100 | > 100 | > 100 | > 100 | > 100 | > 100 | > 100 | > 100 | – | > 100 | > 100 | > 100 | > 100 | > 100 | – | –
25 | O=C(COc1ccc(Cl)cc1Cl)N/N=C/C=C/c1ccc([N+](=O)[O-])o1 | > 100 | 15.2 | > 100 | > 100 | – | 6.14 | > 100 | – | > 100 | > 100 | 54.4 | – | 6.79 | > 100 | > 100 | > 100 | –
26 | COC(=O)c1ccccc1C1CN=NC12Cc1cc(C)cc(C)c1C2=O (centres undefined) | > 100 | > 100 | > 100 | > 100 | – | > 100 | > 100 | > 100 | 51.7 | > 100 | > 100 | > 100 | > 100 | > 100 | > 100 | > 100 | > 100
27 | C/C(=N/NC(N)=S)C(CN(C)C)C(C1=C(O)c2ccccc2OC1)c1ccccc1 (centres undefined) | > 100 | > 100 | > 100 | > 100 | > 100 | > 100 | > 100 | > 100 | > 100 | > 100 | > 100 | > 100 | > 100 | > 100 | > 100 | – | –
28 | CCOC(=O)Nn1c(C)cc(C(=O)OC)c1C | > 100 | > 100 | > 100 | > 100 | – | > 100 | > 100 | > 100 | > 100 | > 100 | > 100 | > 100 | > 100 | > 100 | > 100 | – | –
29 | Cc1cc(=O)[nH]c(NNC(C#N)c2ccco2)n1 (centres undefined) | > 100 | > 100 | > 100 | > 100 | > 100 | > 100 | > 100 | > 100 | > 100 | > 100 | > 100 | > 100 | > 100 | > 100 | > 100 | – | –
30 | Cc1ccc(S(=O)(=O)Nn2c(O)c(C#N)c(-c3ccc(N(C)C)cc3)c(C#N)c2=O)cc1 | > 50 | > 50 | > 50 | > 50 | – | > 50 | > 50 | > 50 | > 50 | > 50 | > 50 | > 50 | > 50 | > 50 | – | > 50 | –
